AC50 data for 16 compounds are collected here from ChEMBL document CHEMBL5291721, “A preclinical secondary pharmacology resource illuminates target-adverse drug reaction associations of marketed drugs” (Nat Commun, 2023).

Test [1] addresses T1, Alpha-1A adrenergic receptor (Homo sapiens, UniProt P35348).
T1 sequence (P35348 whole entry): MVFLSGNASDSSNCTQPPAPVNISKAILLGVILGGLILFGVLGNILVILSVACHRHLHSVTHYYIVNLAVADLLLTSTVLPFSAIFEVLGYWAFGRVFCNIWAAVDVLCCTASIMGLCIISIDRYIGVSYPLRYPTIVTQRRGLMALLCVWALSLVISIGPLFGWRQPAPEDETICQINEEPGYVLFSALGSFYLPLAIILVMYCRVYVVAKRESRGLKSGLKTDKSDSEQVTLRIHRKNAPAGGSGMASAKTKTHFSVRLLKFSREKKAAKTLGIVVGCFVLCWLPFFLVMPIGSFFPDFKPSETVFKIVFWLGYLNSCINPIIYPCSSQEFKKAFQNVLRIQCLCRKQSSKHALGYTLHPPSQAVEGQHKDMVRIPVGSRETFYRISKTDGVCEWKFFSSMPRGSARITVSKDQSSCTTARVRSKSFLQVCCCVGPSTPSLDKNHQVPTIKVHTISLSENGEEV

The target of test [2] is T2, Endothelin receptor type B (Homo sapiens, UniProt P24530).
T2 sequence (P24530 whole entry): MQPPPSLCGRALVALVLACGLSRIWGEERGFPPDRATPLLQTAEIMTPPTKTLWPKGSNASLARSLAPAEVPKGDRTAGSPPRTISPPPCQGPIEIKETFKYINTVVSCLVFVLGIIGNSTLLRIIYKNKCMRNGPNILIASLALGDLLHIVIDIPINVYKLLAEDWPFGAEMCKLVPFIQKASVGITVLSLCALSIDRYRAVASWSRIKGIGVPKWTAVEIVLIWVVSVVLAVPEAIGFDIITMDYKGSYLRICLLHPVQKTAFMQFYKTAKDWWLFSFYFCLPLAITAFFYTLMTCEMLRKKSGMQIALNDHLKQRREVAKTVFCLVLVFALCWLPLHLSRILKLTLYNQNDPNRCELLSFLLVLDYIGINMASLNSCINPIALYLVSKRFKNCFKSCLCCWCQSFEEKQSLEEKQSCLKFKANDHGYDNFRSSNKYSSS

For a further test, the target named is Histamine H2 receptor (Homo sapiens, UniProt P25021).
Sequence of Histamine H2 receptor (P25021 whole entry): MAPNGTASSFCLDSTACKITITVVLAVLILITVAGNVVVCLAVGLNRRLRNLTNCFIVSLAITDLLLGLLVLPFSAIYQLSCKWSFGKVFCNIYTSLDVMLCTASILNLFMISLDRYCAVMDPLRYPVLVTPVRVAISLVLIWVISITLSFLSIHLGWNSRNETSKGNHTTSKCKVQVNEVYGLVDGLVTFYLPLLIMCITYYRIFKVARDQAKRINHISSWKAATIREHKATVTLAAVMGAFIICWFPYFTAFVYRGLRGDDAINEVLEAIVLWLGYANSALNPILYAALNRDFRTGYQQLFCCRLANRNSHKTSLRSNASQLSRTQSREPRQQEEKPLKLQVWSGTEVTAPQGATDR
In test [3] the target is 5-hydroxytryptamine receptor 2B (Homo sapiens, UniProt P41595).
Sequence of 5-hydroxytryptamine receptor 2B (P41595 whole entry): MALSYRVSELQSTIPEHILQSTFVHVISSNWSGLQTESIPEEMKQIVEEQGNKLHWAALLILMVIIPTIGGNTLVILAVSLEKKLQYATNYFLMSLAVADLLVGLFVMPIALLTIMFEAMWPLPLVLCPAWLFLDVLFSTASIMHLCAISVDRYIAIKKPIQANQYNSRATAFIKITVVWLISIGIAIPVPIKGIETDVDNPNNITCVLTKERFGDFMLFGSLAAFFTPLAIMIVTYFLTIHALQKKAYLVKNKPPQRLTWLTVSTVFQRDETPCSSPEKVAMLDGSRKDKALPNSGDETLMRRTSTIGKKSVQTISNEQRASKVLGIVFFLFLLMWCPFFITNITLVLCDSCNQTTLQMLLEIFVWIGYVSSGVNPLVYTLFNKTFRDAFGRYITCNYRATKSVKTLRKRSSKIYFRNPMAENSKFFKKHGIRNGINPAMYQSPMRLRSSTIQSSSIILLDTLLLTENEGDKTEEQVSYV
For the next test, the target named is T3, Progesterone receptor (Homo sapiens, UniProt P06401).
T3 sequence (P06401 whole entry): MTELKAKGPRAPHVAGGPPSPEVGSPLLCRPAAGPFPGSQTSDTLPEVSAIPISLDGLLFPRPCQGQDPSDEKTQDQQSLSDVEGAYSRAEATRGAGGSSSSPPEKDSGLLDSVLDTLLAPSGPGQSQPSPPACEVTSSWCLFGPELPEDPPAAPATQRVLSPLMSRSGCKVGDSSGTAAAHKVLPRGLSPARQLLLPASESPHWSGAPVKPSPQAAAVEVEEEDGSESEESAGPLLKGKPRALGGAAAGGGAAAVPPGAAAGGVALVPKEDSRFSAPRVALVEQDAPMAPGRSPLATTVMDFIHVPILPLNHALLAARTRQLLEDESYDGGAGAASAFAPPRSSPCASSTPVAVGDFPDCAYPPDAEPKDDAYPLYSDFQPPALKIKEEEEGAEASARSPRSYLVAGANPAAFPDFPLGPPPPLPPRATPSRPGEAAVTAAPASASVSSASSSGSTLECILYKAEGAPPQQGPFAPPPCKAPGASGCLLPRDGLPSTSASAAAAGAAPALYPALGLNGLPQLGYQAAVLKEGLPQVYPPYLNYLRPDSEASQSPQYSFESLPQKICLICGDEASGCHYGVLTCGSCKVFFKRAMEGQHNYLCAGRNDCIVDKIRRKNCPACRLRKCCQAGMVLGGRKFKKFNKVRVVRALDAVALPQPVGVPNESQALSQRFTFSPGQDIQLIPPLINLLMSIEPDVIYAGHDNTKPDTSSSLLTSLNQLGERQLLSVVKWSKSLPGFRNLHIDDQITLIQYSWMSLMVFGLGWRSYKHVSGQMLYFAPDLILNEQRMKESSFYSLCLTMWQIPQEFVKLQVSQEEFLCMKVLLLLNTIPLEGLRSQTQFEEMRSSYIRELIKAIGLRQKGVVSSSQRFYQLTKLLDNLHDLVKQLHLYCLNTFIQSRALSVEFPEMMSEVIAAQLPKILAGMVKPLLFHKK

Test [4] concerns the target T4, Alpha-2A adrenergic receptor (Homo sapiens, UniProt P08913).
T4 sequence (P08913 whole entry): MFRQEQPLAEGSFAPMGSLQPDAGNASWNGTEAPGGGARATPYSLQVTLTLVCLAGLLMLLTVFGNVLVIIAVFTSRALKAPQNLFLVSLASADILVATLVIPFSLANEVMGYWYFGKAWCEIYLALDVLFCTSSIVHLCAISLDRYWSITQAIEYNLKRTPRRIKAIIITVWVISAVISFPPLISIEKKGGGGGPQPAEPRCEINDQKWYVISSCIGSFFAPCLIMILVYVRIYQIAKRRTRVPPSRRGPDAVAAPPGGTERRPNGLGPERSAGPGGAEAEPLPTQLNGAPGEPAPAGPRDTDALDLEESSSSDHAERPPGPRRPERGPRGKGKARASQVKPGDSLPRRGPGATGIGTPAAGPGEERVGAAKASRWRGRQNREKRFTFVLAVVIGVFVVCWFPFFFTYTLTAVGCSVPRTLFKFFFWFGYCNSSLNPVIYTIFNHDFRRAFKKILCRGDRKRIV

Test [5] addresses T5, Muscarinic acetylcholine receptor M2 (Homo sapiens, UniProt P08172).
T5 sequence (P08172 whole entry): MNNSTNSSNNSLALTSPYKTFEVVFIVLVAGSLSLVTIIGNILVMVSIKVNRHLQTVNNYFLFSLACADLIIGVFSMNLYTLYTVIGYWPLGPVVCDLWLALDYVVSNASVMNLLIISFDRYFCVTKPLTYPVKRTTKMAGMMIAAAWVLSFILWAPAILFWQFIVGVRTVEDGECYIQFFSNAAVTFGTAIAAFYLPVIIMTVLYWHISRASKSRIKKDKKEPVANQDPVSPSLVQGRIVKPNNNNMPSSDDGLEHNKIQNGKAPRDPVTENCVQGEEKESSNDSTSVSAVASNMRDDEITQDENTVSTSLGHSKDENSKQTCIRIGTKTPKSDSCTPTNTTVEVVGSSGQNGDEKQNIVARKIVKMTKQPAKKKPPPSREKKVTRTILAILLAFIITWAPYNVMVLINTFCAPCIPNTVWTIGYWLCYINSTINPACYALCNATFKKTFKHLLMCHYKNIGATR

Bounds are passed on as bounds.
Further: assay procedure not described here.

As a reminder, the AC50 is the concentration at which the activity in the assay is half-maximal. High values mean activity only at high concentration, low ones activity at low concentration. On to `CCCCCCCC(=O)N[C@H](CN1CCCC1)[C@H](O)c1ccc2c(c1)OCCO2`, for which the concentration at half-maximal activity (AC50) in test [1] was over 30 µM.

In the case of `C[C@]1(COc2ccc(N3CCC(Oc4ccc(OC(F)(F)F)cc4)CC3)cc2)Cn2cc([N+](=O)[O-])nc2O1`, the AC50 is over 30 µM in test [2]; over 10 µM at Histamine H2 receptor; over 10 µM in test [3]; over 30 µM at Progesterone receptor; over 10 µM in test [4]; over 10 µM in test [5].

As for `C[C@]12CC[C@H](O)CC1=CC[C@@H]1[C@@H]2CC[C@]2(C)C(c3cccnc3)=CC[C@@H]12` [ABIRATERONE], the AC50 at Progesterone receptor is over 30 µM.

For `CC(=O)OCC[N+](C)(C)C` [ACETYLCHOLINE], the AC50 in test [2] is over 30 µM; at Histamine H2 receptor, over 10 µM; in test [3], over 10 µM; at Progesterone receptor, over 30 µM; in test [4], over 10 µM.

As to `O=C(Nc1nc(-c2cc(Cl)cs2)c(N2CCN(C3CCCCC3)CC2)s1)c1cnc(N2CCC(C(=O)O)CC2)c(Cl)c1` [AVATROMBOPAG], the AC50 in test [1] is over 30 µM; in test [2], over 10 µM; at Histamine H2 receptor, over 10 µM; in test [3] it was over 10 µM; in test [4], over 10 µM; in test [5], over 10 µM.

Regarding `C[C@H]1C[C@H]2[C@@H]3CCC4=CC(=O)C=C[C@]4(C)[C@@]3(Cl)[C@@H](O)C[C@]2(C)[C@@]1(O)C(=O)CO` [BECLOMETHASONE], the AC50 in test [2] is over 30 µM; at Histamine H2 receptor, over 10 µM; in test [3], over 10 µM; on Progesterone receptor, over 30 µM; in test [4], over 10 µM; in test [5], over 10 µM.

The compound `CO[C@@]1(NC(=O)CSCC#N)C(=O)N2C(C(=O)O)=C(CSc3nnnn3C)CS[C@@H]21` [CEFMETAZOLE] returned an AC50 in test [1] of over 30 µM.

Take `Oc1c(I)cc(Cl)c2cccnc12` [CLIOQUINOL]: in test [1], the AC50 was over 30 µM.

For `COc1ccc2c(c1)[C@]13CCCC[C@@H]1[C@H](C2)N(C)CC3` [DEXTROMETHORPHAN], the AC50 in test [2] is over 30 µM; on Histamine H2 receptor it was over 10 µM; in test [3], 5.8 µM; on Progesterone receptor, over 30 µM; in test [4] it was 11.2 µM; in test [5], over 10 µM.

Turning to `CCn1cc(C(=O)O)c(=O)c2cc(F)c(N3CCNCC3)nc21` [ENOXACIN], the AC50 is over 30 µM in test [2]; over 10 µM at Histamine H2 receptor; over 10 µM in test [3]; over 30 µM at Progesterone receptor; over 10 µM in test [4]; over 10 µM in test [5].

In test [1], `CCC(=O)O[C@@H]1CC(=O)O[C@H](C)C/C=C/C=C/[C@H](OC(C)=O)[C@H](C)C[C@H](CC=O)[C@H](O[C@@H]2O[C@H](C)[C@@H](O[C@H]3C[C@@](C)(OC(C)=O)[C@@H](OC(=O)CC)[C@H](C)O3)[C@H](N(C)C)[C@H]2O)[C@H]1OC` [MIOCAMYCIN] came in with an AC50 of over 30 µM.

`C1CNCCN1` [PIPERAZINE] yielded an AC50 in test [1] of over 30 µM.

For `CNCCCC1c2ccccc2C=Cc2ccccc21` [PROTRIPTYLINE], in test [5], the AC50 was 0.653 µM.

For `COCCCOc1ccnc(C[S+]([O-])c2nc3ccccc3[nH]2)c1C` (stereo unspecified) [RABEPRAZOLE], the AC50 in test [2] is over 30 µM; at Histamine H2 receptor it was over 10 µM; in test [3] it was over 10 µM; on Progesterone receptor, over 30 µM; in test [4] it was over 10 µM; in test [5], over 10 µM.

Compound `O=C(CCCN1CCC2(CC1)C(=O)NCN2c1ccccc1)c1ccc(F)cc1` [SPIPERONE] displayed a concentration at half-maximal activity (AC50) in test [3] of 0.66 µM.

Regarding `OCCN1CCN(CC/C=C2/c3ccccc3Sc3ccc(Cl)cc32)CC1` [ZUCLOPENTHIXOL], the AC50 turned out to be 0.0144 µM in test [3] and 7.34 µM in test [4].
